In patent US7250438B2, “Anti-bacterial and anti-cancer spiro beta-lactone/gamma-lactams” (Nereus Pharmaceuticals, Inc., priority 2004, dated 2007):

Tests used:
[1] = Qualitative solubility of the isolated compound; type: physicochemical; details: CHCl3, MeOH, and DMSO
[2] = tested on: B16-F10 cells; assay: Growth inhibition of murine melanoma B16-F10 cells (Resazurin); type: cell-based; details: Mus musculus, 48 hours of drug exposure
Method: B16-F10 (ATCC; CRL-6475) a murine melanoma cell line was maintained in complete Dulbecco's Modification of Eagle's Medium (DMEM) (DMEM supplemented with 10% (v/v) Fetal bovine serum, 2 mM glutamine, 10 mM HEPES and Penicillin/Streptomycin at 100 IU/ml and 100 μg/ml respectively). The cells were cultured in an incubator at 37° C, 5% CO2 and 95% humidified air.
For cell growth inhibition assays, B16-F10 cells were seeded at 1.25×10^3 cells/well in 90 μl complete media into Coming 3904 black-walled, clear-bottom tissue culture plates and the plates were incubated overnight to allow cells to establish and enter log phase growth. 20mM stock solutions of the compound of Formula (VI) were prepared in 100% DMSO. 10× concentrated serial dilutions of the compound of Formula (VI) were prepared in appropriate culture medium. […]
Following 48 hours of drug exposure, 10 μl of 0.2 mg/ml Resazurin (obtained from Sigma-Aldrich Chemical Co.) in Mg^2+, Ca^2+ free phosphate buffered saline was added to each well and the plates were returned to the incubator for 3–6 hours. Since living cells metabolize Resazurin, the fluorescence of the reduction product of Resazurin was measured using a Fusion microplate fluorometer (Packard Bioscience) with λex=535 nm and λem=590 nm filters. […]

[3] = tested on: Staphylococcus aureus - MRSA; assay: MIC, serial micro broth dilution (NCCLS M7-A5); type: cell-based; details: Mueller-Hinton broth, 35° C., 18 hours
Method: (§1) Minimum inhibitory concentrations (MICs) were determined according to the National Committee for Clinical Laboratory Standards (NCCLS) susceptibility test guideline M7-A5 to quantify the anti-microbial activity of the compound of Formula (VI) against both gram-positive and gram-negative bacteria. Ferraro, M. 2001 Methods for Dilution Antimicrobial Susceptibility Tests for Bacteria that Grow Aerobically; Approved Standard (NCCLS), Villanova, which is incorporated herein by reference in its entirety. The serial micro broth dilution method used BBL Mueller-Hinton broth (cation adjusted) except for the […] which was tested in BBL Mueller-Hinton broth II (cation adjusted) with lysed horse blood. The final bacterial inoculum contained approximately 5×10^5 CFU/ml and was run on microtiter plates. The volume of each well was 100 μl and the plates were incubated at 35° C. for 18 hours. The MIC was defined as the lowest drug concentration that prevented visible growth of the bacterium. The compound was active versus several microorganisms, especially gram-positive species.

[4] = tested on: Streptococcus pneumoniae - penicillin resistant; assay: MIC, serial micro broth dilution (NCCLS M7-A5); type: cell-based; details: Mueller-Hinton broth II with lysed horse blood, 35° C., 18 hours
Method: as §1

[5] = tested on: Streptococcus pneumoniae - penicillin sensitive; assay: MIC, serial micro broth dilution (NCCLS M7-A5); type: cell-based; details: Mueller-Hinton broth II with lysed horse blood, 35° C., 18 hours
Method: as §1

[6] = tested on: Staphylococcus aureus - MSSA; assay: MIC, serial micro broth dilution (NCCLS M7-A5); type: cell-based; details: Mueller-Hinton broth, 35° C., 18 hours
Method: as §1

[7] = tested on: E. coli - imp; assay: MIC, serial micro broth dilution (NCCLS M7-A5); type: cell-based; details: Escherichia coli, 18 h
Method: as §1

[8] = tested on: E. faecalis - Van^s; assay: MIC, serial micro broth dilution (NCCLS M7-A5); type: cell-based; details: Enterococcus faecalis, Mueller-Hinton broth, 35° C., 18 hours
Method: as §1

[9] = tested on: E. faecium - Van^r; assay: MIC, serial micro broth dilution (NCCLS M7-A5); type: cell-based; details: Enterococcus faecium, Mueller-Hinton broth, 35° C., 18 hours
Method: as §1

COC(CC(C)C(O)/C=C/C=C/CNC(=O)C(C)(C)C(O)\C(C)=C/C=C\C=C\C(C)=C(/C)[N+](=O)[O-])C1(O)C(C)C(=O)N(C)C12C(=O)OC2C (stereo not drawn) [Formula (VI)]
solubility (qualitative) [1]: qualitatively soluble in CHCl3, MeOH, and DMSO
EC50 [2]: 9.6 µM
MIC [3]: 5 µg/mL
MIC [4]: 1.5 µg/mL
MIC [5]: 2 µg/mL
MIC [6]: 4 µg/mL
MIC [7]: 12 µg/mL
MIC [8]: 14 µg/mL
MIC [9]: 20 µg/mL
